Measurements reported in ChEMBL document CHEMBL1201862, “PubChem BioAssay data set” (2004).
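Following 48 hours of exposure in 96-well plates, responses at five concentrations were used to interpolate endpoints linearly. Abbreviation: GI50, concentration required for 50% inhibition of growth.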 Calls of active or inactive are those of the source. Rule as the data show it: active = GI50 up to about 1.1 µM and inactive = higher.

Tests used:
Experiment in all cases: inhibition of tumour cell growth, NCI panel, 48 h
Hs-578T = test system: Hs-578T
HCC 2998 = test system: HCC 2998
IGROV-1 = test system: IGROV-1
Malme-3M = test system: Malme-3M
NCI/ADR-RES = test system: NCI/ADR-RES
UACC-257 = test system: UACC-257
CCRF-CEM = test system: CCRF-CEM
U-251 = test system: U-251
MCF7 = test system: MCF7
HT-29 = test system: HT-29
SNB-19 = test system: SNB-19
MDA-MB-435 = test system: MDA-MB-435
MDA-MB-231 = test system: MDA-MB-231
T47D = test system: T47D
UO-31 = test system: UO-31
UACC-62 = test system: UACC-62
MDA-N = test system: MDA-N
HL-60 = test system: HL-60
RPMI-8226 = test system: RPMI-8226
NCI-H522 = test system: NCI-H522

| SMILES | GI50 (Hs-578T) | GI50 (HCC 2998) | GI50 (IGROV-1) | GI50 (Malme-3M) | GI50 (NCI/ADR-RES) | GI50 (UACC-257) | GI50 (CCRF-CEM) | GI50 (U-251) | GI50 (MCF7) | GI50 (HT-29) | GI50 (SNB-19) | GI50 (MDA-MB-435) | GI50 (MDA-MB-231) | GI50 (T47D) | GI50 (UO-31) | GI50 (UACC-62) | GI50 (MDA-N) | GI50 (HL-60) | GI50 (RPMI-8226) | GI50 (NCI-H522) |
| --- | --- | --- | --- | --- | --- | --- | --- | --- | --- | --- | --- | --- | --- | --- | --- | --- | --- | --- | --- | --- |
| N/C(S)=N/N=C/c1ncccc1O | 30.8 µM (inactive) | 9.08 µM (inactive) | 1.55 µM (inactive) | 1.95 µM (inactive) | 0.757 µM (active) | 2.49 µM (inactive) | 0.475 µM (active) | 1.73 µM (inactive) | 0.723 µM (active) | 3.56 µM (inactive) | 2.65 µM (inactive) | 3.81 µM (inactive) | 4.29 µM (inactive) | 3.14 µM (inactive) | 0.701 µM (active) | 0.482 µM (active) | 3.77 µM (inactive) |  |  |  |
| O=C1C(Br)=C(c2ccccc2)C(c2ccccc2)=C1c1ccccc1 | 13.7 µM (inactive) | 6.05 µM (inactive) | 4.28 µM (inactive) | 1.75 µM (inactive) |  | 3.35 µM (inactive) | 0.269 µM (active) | 3.36 µM (inactive) | 2.4 µM (inactive) | 2.28 µM (inactive) | 11.4 µM (inactive) | 3.82 µM (inactive) | 1.79 µM (inactive) | 2.37 µM (inactive) | 5.5 µM (inactive) | 2.38 µM (inactive) | 2.98 µM (inactive) | 0.67 µM (active) | 1.45 µM (inactive) | 0.753 µM (active) |
| O=C1C(NS(=O)(=O)c2ccccc2)=C(N(Cc2ccccc2)Cc2ccccc2)C(=O)c2ccccc21 | 81.3 µM (inactive) |  | 41.8 µM (inactive) | 0.273 µM (active) | 38.5 µM (inactive) | 96.8 µM (inactive) | 20.2 µM (inactive) | 35 µM (inactive) | 49.7 µM (inactive) | 60.3 µM (inactive) | 38.6 µM (inactive) | 47.3 µM (inactive) | > 100 µM (inactive) | 32.1 µM (inactive) | 19.2 µM (inactive) | 33.4 µM (inactive) | 64.6 µM (inactive) | 20.7 µM (inactive) | 18.8 µM (inactive) |  |
| c1cc2c3ccsc3c3sccc3c2s1 | 11.9 µM (inactive) | 36.4 µM (inactive) | 16.3 µM (inactive) |  | > 100 µM (inactive) | > 100 µM (inactive) | > 100 µM (inactive) | > 100 µM (inactive) | 26.9 µM (inactive) | 99.5 µM (inactive) |  | > 100 µM (inactive) | > 100 µM (inactive) | > 100 µM (inactive) | > 100 µM (inactive) | > 100 µM (inactive) | > 100 µM (inactive) | 46.9 µM (inactive) | > 100 µM (inactive) |  |
| CN(C)/C=N/C1CCC(C(C)(C)C)CC1 (stereo unspecified) | 20.7 µM (inactive) | 14.8 µM (inactive) | 21.5 µM (inactive) | 18.4 µM (inactive) | 17.7 µM (inactive) | 15.7 µM (inactive) |  | 16.1 µM (inactive) | 27.9 µM (inactive) | 8.69 µM (inactive) | 20.4 µM (inactive) | 18.7 µM (inactive) | 13.6 µM (inactive) | 16.4 µM (inactive) | 16.3 µM (inactive) | 19 µM (inactive) |  | 15.3 µM (inactive) |  | 16.6 µM (inactive) |
| Cc1nnc2n(c1=O)CCCN2C | > 100 µM (inactive) | > 100 µM (inactive) | > 100 µM (inactive) | > 100 µM (inactive) |  |  | > 100 µM (inactive) | > 100 µM (inactive) | > 100 µM (inactive) | > 100 µM (inactive) | > 100 µM (inactive) | > 100 µM (inactive) | > 100 µM (inactive) | > 100 µM (inactive) | > 100 µM (inactive) | > 100 µM (inactive) | > 100 µM (inactive) | > 100 µM (inactive) | > 100 µM (inactive) |  |
| COc1c2cc(C(C)(C)C)cc1CSCc1cc(C(C)(C)C)cc(c1OC)CCCCC2 | > 50 µM (inactive) | 29.6 µM (inactive) | 21.4 µM (inactive) | 29 µM (inactive) | > 50 µM (inactive) | 13.3 µM (inactive) | 33.1 µM (inactive) | 27 µM (inactive) | > 50 µM (inactive) | > 50 µM (inactive) | 20.2 µM (inactive) | > 50 µM (inactive) | 46.8 µM (inactive) | 30 µM (inactive) | 20.7 µM (inactive) | 29.7 µM (inactive) | > 50 µM (inactive) | > 50 µM (inactive) |  |  |
| O=[N+]([O-])c1ccc2nc3n(c2c1)C(c1c(F)cccc1F)SC3 (stereo unspecified) | > 100 µM (inactive) |  | > 100 µM (inactive) | > 100 µM (inactive) | > 100 µM (inactive) | > 100 µM (inactive) | > 100 µM (inactive) | > 100 µM (inactive) | > 100 µM (inactive) | > 100 µM (inactive) | > 100 µM (inactive) |  | > 100 µM (inactive) | > 10 µM (inactive) |  |  | > 100 µM (inactive) |  | > 10 µM (inactive) |  |
| c1csc(-c2cc(-c3cccs3)c(-c3ccsc3)s2)c1 | > 100 µM (inactive) | 34.2 µM (inactive) | > 100 µM (inactive) | > 100 µM (inactive) | > 100 µM (inactive) | 58.1 µM (inactive) | > 100 µM (inactive) | > 100 µM (inactive) | 24.7 µM (inactive) | > 100 µM (inactive) | > 100 µM (inactive) | > 100 µM (inactive) | > 100 µM (inactive) | 17.6 µM (inactive) | > 100 µM (inactive) | > 100 µM (inactive) | > 100 µM (inactive) | > 100 µM (inactive) | 96.2 µM (inactive) |  |
| [N-]=[N+]=NCN1C(=O)C2C3C=CC(C2C1=O)C1C2C(=O)N(CN=[N+]=[N-])C(=O)C2C31 (stereo unspecified) | > 100 µM (inactive) | 11.7 µM (inactive) | > 100 µM (inactive) |  | > 100 µM (inactive) | > 100 µM (inactive) |  |  | > 100 µM (inactive) | > 100 µM (inactive) | > 100 µM (inactive) | > 100 µM (inactive) |  | > 100 µM (inactive) | > 100 µM (inactive) | > 100 µM (inactive) | > 100 µM (inactive) |  | > 100 µM (inactive) | > 100 µM (inactive) |
| COc1ccc(CN=C(N)N)c2ccccc12 | 24.1 µM (inactive) |  |  | 17.1 µM (inactive) | > 100 µM (inactive) | 47 µM (inactive) | 38.3 µM (inactive) | 16.4 µM (inactive) | 36.7 µM (inactive) | 15.8 µM (inactive) | 18.4 µM (inactive) |  |  | 31.9 µM (inactive) | 23.5 µM (inactive) | 39.4 µM (inactive) | 38.5 µM (inactive) | 23.8 µM (inactive) | 31.6 µM (inactive) | 34.3 µM (inactive) |
| O=c1oc2ccc3ccccc3c2cc1-c1nc2ccccc2s1 | > 100 µM (inactive) | > 100 µM (inactive) | > 100 µM (inactive) | > 100 µM (inactive) | > 100 µM (inactive) | > 100 µM (inactive) | > 100 µM (inactive) | > 100 µM (inactive) |  | > 100 µM (inactive) |  | > 100 µM (inactive) | > 100 µM (inactive) | > 66.7 µM (inactive) | > 100 µM (inactive) | > 100 µM (inactive) | > 100 µM (inactive) | > 100 µM (inactive) |  | > 100 µM (inactive) |
| COc1ccc(C2SC(=N)Nc3c2c(C)nn3C(=O)c2ccccc2O)cc1OC (stereo unspecified) | 1.56 µM (inactive) |  | 4.71 µM (inactive) | 6.3 µM (inactive) | 5.52 µM (inactive) | > 10 µM (inactive) | 4.93 µM (inactive) | 4.5 µM (inactive) | 3.3 µM (inactive) | > 10 µM (inactive) | 5.42 µM (inactive) | 2.81 µM (inactive) | 7.5 µM (inactive) | 3.18 µM (inactive) | 4.61 µM (inactive) | 2.64 µM (inactive) | 6.08 µM (inactive) | 2.16 µM (inactive) | 6.28 µM (inactive) |  |
| CCN(CC)CCC1CCCCN1CC(=O)N1c2ccccc2NC(=O)c2ccccc21 (stereo unspecified) | > 100 µM (inactive) | > 100 µM (inactive) | > 100 µM (inactive) | > 100 µM (inactive) |  | > 100 µM (inactive) | > 100 µM (inactive) | > 100 µM (inactive) | > 100 µM (inactive) | > 100 µM (inactive) | > 100 µM (inactive) | > 100 µM (inactive) | > 100 µM (inactive) | > 100 µM (inactive) | > 100 µM (inactive) | > 100 µM (inactive) | > 100 µM (inactive) | > 100 µM (inactive) | > 100 µM (inactive) | > 100 µM (inactive) |
| COC(=O)C1C(C(=O)OC)C2(OC(c3ccc(Cl)cc3)=CC2=O)C12OC(c1ccc(Cl)cc1)=CC2=O (stereo unspecified) | 30.5 µM (inactive) | 18.3 µM (inactive) | 17 µM (inactive) | 17.3 µM (inactive) |  | 22.9 µM (inactive) | 3.01 µM (inactive) | 32.1 µM (inactive) | 18 µM (inactive) | 16.7 µM (inactive) | 43.2 µM (inactive) | 22.5 µM (inactive) | 26.4 µM (inactive) | 14.8 µM (inactive) | 16.6 µM (inactive) | 14.6 µM (inactive) | 18.3 µM (inactive) | 2.81 µM (inactive) | 7.21 µM (inactive) | 18.4 µM (inactive) |
| CCCc1cc2c(cc1O)CC[C@@H]1[C@@H]2CC[C@]2(C)[C@@H](O)CC[C@@H]12 | 10.1 µM (inactive) | 16.5 µM (inactive) | 15.2 µM (inactive) | 13 µM (inactive) | 6.32 µM (inactive) | 13.1 µM (inactive) | 5.41 µM (inactive) | 6.62 µM (inactive) |  | 16.3 µM (inactive) | 12.9 µM (inactive) |  | 17.3 µM (inactive) | 10.6 µM (inactive) | 12 µM (inactive) |  | 2.29 µM (inactive) | 12.6 µM (inactive) |  | 8.32 µM (inactive) |
